Assay results published in PubChem BioAssay (NCI).
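48-hour exposure; five concentrations; linearly interpolated endpoints. TGI marks complete inhibition of growth.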

What was measured:
Test in all cases: DTP human tumour cell line panel, 48 h
MALME-3M melanoma = system: MALME-3M melanoma
HT29 colon = system: HT29 colon
UACC-257 melanoma = system: UACC-257 melanoma
DMS 273 small cell lung = system: DMS 273 small cell lung
MOLT-4 leukemia = system: MOLT-4 leukemia
SK-OV-3 ovarian = system: SK-OV-3 ovarian
LXFL 529 NSCLC = system: LXFL 529 NSCLC
SR leukemia = system: SR leukemia
786-0 renal = system: 786-0 renal
U251 CNS = system: U251 CNS
COLO 205 colon = system: COLO 205 colon
TK-10 renal = system: TK-10 renal
M14 melanoma = system: M14 melanoma
LOX IMVI melanoma = system: LOX IMVI melanoma
UACC-62 melanoma = system: UACC-62 melanoma
NCI-H460 lung = system: NCI-H460 lung
KM20L2 colon = system: KM20L2 colon
RXF 393 renal = system: RXF 393 renal
UO-31 renal = system: UO-31 renal
HCC-2998 colon = system: HCC-2998 colon
A498 renal = system: A498 renal
SN12C renal = system: SN12C renal
DU-145 prostate = system: DU-145 prostate
PC-3 prostate = system: PC-3 prostate
HCT-15 colon = system: HCT-15 colon
HS 578T breast = system: HS 578T breast
MCF7 breast = system: MCF7 breast
RPMI-8226 leukemia = system: RPMI-8226 leukemia
SNB-19 CNS = system: SNB-19 CNS
SK-MEL-5 melanoma = system: SK-MEL-5 melanoma
NCI-H23 lung = system: NCI-H23 lung
M19-MEL melanoma = system: M19-MEL melanoma
IGROV1 ovarian = system: IGROV1 ovarian
CCRF-CEM leukemia = system: CCRF-CEM leukemia
HOP-62 NSCLC = system: HOP-62 NSCLC
NCI/ADR-RES ovarian = system: NCI/ADR-RES ovarian
HCT-116 colon = system: HCT-116 colon
SK-MEL-2 melanoma = system: SK-MEL-2 melanoma
A549 NSCLC = system: A549 NSCLC
CAKI-1 renal = system: CAKI-1 renal
EKVX NSCLC = system: EKVX NSCLC
OVCAR-5 ovarian = system: OVCAR-5 ovarian
SNB-75 CNS = system: SNB-75 CNS
DLD-1 colon = system: DLD-1 colon
OVCAR-3 ovarian = system: OVCAR-3 ovarian
KM12 colon = system: KM12 colon
HOP-18 NSCLC = system: HOP-18 NSCLC
HL-60(TB) leukemia = system: HL-60(TB) leukemia
SF-539 CNS = system: SF-539 CNS
OVCAR-8 ovarian = system: OVCAR-8 ovarian
SF-295 CNS = system: SF-295 CNS
SF-268 CNS = system: SF-268 CNS
NCI-H522 lung = system: NCI-H522 lung
NCI-H226 lung = system: NCI-H226 lung
HOP-92 NSCLC = system: HOP-92 NSCLC
ACHN renal = system: ACHN renal
SW-620 colon = system: SW-620 colon
SNB-78 CNS = system: SNB-78 CNS
OVCAR-4 ovarian = system: OVCAR-4 ovarian
DMS 114 small cell lung = system: DMS 114 small cell lung
K-562 leukemia = system: K-562 leukemia
T-47D breast = system: T-47D breast
SK-MEL-28 melanoma = system: SK-MEL-28 melanoma
XF 498 CNS = system: XF 498 CNS
RXF-631 renal = system: RXF-631 renal

Measured: TGI

CC1=NN(c2ccccc2)C(=O)C1C(=O)C(=O)Nc1ccc(C)cc1C (stereo not given)
not listed: XF 498 CNS | RXF-631 renal
> 100 µM: all other assays above

COC1=CC(=O)C2[C@H]3Cc4ccccc4[C@H]3C2(C)C1=O (stereo not given in full)
not listed: SN12C renal | DU-145 prostate | PC-3 prostate | HS 578T breast | MCF7 breast | NCI/ADR-RES ovarian | HCT-116 colon | HOP-18 NSCLC | HL-60(TB) leukemia | DMS 114 small cell lung | T-47D breast
> 100 µM: all other assays above

NC(CCCNCc1ccccc1O)C(=O)O (stereo not given)
not listed: SR leukemia | U251 CNS | RXF 393 renal | HCC-2998 colon | DU-145 prostate | PC-3 prostate | HS 578T breast | MCF7 breast | NCI/ADR-RES ovarian | T-47D breast | XF 498 CNS | RXF-631 renal
> 100 µM: all other assays above
